Assay results from patent EP0722733A1, “BLOOD VESSEL THICKENING INHIBITOR AND SMOOTH MUSCLE FIBER MIGRATION INHIBITOR EACH CONTAINING 7-THIAPROSTAGLANDIN E 1? COMPOUND AS ACTIVE INGREDIENT” (TEIJIN LIMITED, priority 1993, dated 1995).

Key:
[1] = tested on: vascular smooth muscle cells derived from normal human arteries; assay: Suppression of PDGF-mediated migration of human vascular smooth muscle cells in vitro (Transwell chamber); format: cell-based; details: human PDGF 10 ng/ml, 6 hours; for No. of wandering cells: average cell count of five fields ± standard deviation, control 86.4±20.1
Protocol: To investigate the activity of the tested compound to inhibit cell migration, the migrated cells mediated by human platelet derived growth factor (PDGF) were measured in the following way using the vascular smooth muscle cells derived from normal human arteries and according to the method of MaCarthy et al. (J. Cell. Biol. 97, 772-777 (1983)). That is, a Transwell Chamber (Costar Co., registered trademark) was used to measure the inhibitory action. The chamber was divided into two layers, upper and lower, by a 8 µm pore size membrane filter (PVP - free polycarbonate filter, Nucleopore Co., registered trademark). The filter was precoated on its lower surface with 5 µg of rat tail collagen type 1 (Becton Dickinson Co.) To the upper chamber (100 µl) was added a 1.5 × 10^6/ml suspension of cells (DMEM (made by Flow Laboratories Co.) containing 0.1% BSA (made by Nakalai Tesque Co.) In the lower chamber (600 µl) was placed the same solution diluted by human PDGF (made by Becton Dickinson) to give a final concentration of 10 ng/ml. At this time, the tested compound was added in different concentrations to both the upper and lower chambers. The chambers were incubated at 37°C under 5% CO2 for 6 hours, then the filter was removed, fixed in 99.7% methanol, then stained with hematoxylin and eosin. The cells on the upper surface of the filter were removed by wiping with a cotton swab and the cells that had migrated to the lower surface of the filter were counted under a high output microscope (×200, ×400). Usually, five fields were counted per filter. The migrated cells were shown by the average cell count of five fields ± standard deviation. The significant difference was examined by the Student's two-tailed t test.

SD rats = assay: Acute toxicity test, oral; format: in vivo; details: male SD rats, 6 weeks old, deaths/animals
Protocol: (§1) The above test compound was tested for acute toxicity using SD rats (6 weeks old, SPE, male) (p.o.), whereupon the results shown in the following Table 4 were obtained.

[2] = Acute toxicity test, oral; format: in vivo; details: rat, in vivo, po, male SD rats; judged from Table 4
Protocol: as §1

[3] = tested on: Rat Carotid Artery Endothelium; assay: Suppression of intima thickening after balloon catheter trauma to rat carotid artery endothelium; format: in vivo, SD rats; details: for Intima: from 2 days before to 14 days after surgery, area of thickened intima; for Intima/Media / Media: 14 days after surgery; for Media: area of media; for Suppression rate: intima thickening suppression rate = (1-T/C) x 100 of Intima/Media versus solvent control
Protocol: The test was performed in the following manner in accordance with the method of Krauz et al. (Lab. Invest., vol. 49, p. 208, 1983). Male SD rats having a body weight of 400 to 500g was used. The neck of each rat was opened under anesthesia by sodium pentobarbitol, then a balloon catheter (Fogarty, 2F) was inserted from the right external carotid artery until the starting portion of the common carotid artery. The balloon was expanded by physiological saline to such an extent causing a light resistance, then the catheter was pulled out in that state up to the carotid artery to give trauma to the intima. This procedure was repeated three times, then the catheter was withdrawn and the external carotid artery was sewn up. After 14 days, the chest was opened under anesthesia by pentobarbitol, refluxing was performed from the left ventricle by physiological saline containing heparin (20 units/ml), then the left common carotid artery was excised and immobilized by neutral formalin solution. The immobilized carotid artery was dyed by Olsein dye, then the areas of the media and thickened portion of the intima were measured by an image resolution device (LUZEX2D).
The test drug began to be administered subcutaneously at a rate of 1.0 µg/rat/hr or 3.2 µg/rat/hr using a miniosmotic pump buried in the back of the rat from two days before the surgery and was continued until 14 days after the surgery. The activity of the drug in suppressing intima thickening was found from the following formula.

[4] = tested on: rat vascular smooth muscle cells (SMC); assay: Suppression of PDGF-induced wandering of rat vascular smooth muscle cells in vitro (blind well chamber); format: cell-based, rats; details: PDGF 20 ng/ml, 4 hours; for No. of wandering cells: average ± standard error, n=3, control 176±19; for Suppression rate: cell wandering suppression rate = 100 - (T/C x 100)
Protocol: Media tissue of the chest arteries of the rats was sampled in accordance with the method of Ross (J. Cell Biol. 50: 172-186, 1971), then was incubated by a Delvecco Modified Eagle Medium (DMEM) containing 10% fetal calf serum in a CO2 incubator (95% air-5% CO2, 37°C, humidity 100%). The fourth generation cultured cells were used for the experiment. The rat vascular smooth muscle cells (SMC) were freed by a 0.008% trypsin-0.01% EDTA solution and made to wander in DMEM containing 0.1% bovine serum albumin. The wandering of the cells was observed using a 24-well blind well chamber made by Neuro Probe. In the lower chambers were placed 100 µl amounts of a mixture of the cell wandering factor (platelet derived growth factor PDGF 20 ng/ml) and the drug. These were covered by a Nuclepore filter (pore size, 8 µm) made by Corning. 100 µl amounts of the incubation solution containing the drug and in which 5 × 10^5 cells/ml of SMC were made to wander were placed in the top chambers and allowed to stand in a CO2 incubator for 4 hours. After the end of the incubation, the smooth muscle cells were immobilized for each filter, then were Propidum dyed. The cells in the lower chambers were counted in four fields under a laser microscope in a 0.48 mm^2 area field. The average was used as the number of wandering cells.
The rate of suppression of cell wandering (%) was found from the following formula. Cell wandering suppression rate (%) = 100 - (T/C × 100) [formula] wherein, C and T respectively show the number of wandering cells at the time of addition of cell wandering factor minus the number of wandering cells at the time of no addition of cell wandering factor and the number of wandering cells at the time of addition of the drug.

[5] = 1.0 µg/rat/hr s.c. by miniosmotic pump

CCCC[C@@H](C)C[C@H](O)/C=C/[C@H]1[C@H](O)CC(=O)[C@@H]1SCCCCCC(=O)OC [Test Compound, (17R)-17,20-dimethyl-7-thiaprostaglandin E1 methyl ester]
Suppression rate ([1]; 10^-7 M): 78.0% | No. of wandering cells ([1]; 10^-7 M): 19.0±11.8 | Suppression rate ([1]; 10^-8 M): 41.0% | No. of wandering cells ([1]; 10^-8 M): 51.0±9.5 | Suppression rate ([1]; 10^-9 M): 22.2% | No. of wandering cells ([1]; 10^-9 M): 67.2±15.7 | No. of deaths (SD rats; 20 mg/kg p.o.): 0/2 | No. of deaths (SD rats; 100 mg/kg p.o.): 1/2 | No. of deaths (SD rats; 200 mg/kg p.o.): 2/2 | LD50 [2]: ~100 mg/kg | Intima ([3]; 1.0 µg/rat/hr s.c. by miniosmotic pump, average, standard error in the row below): 0.118 mm² | Intima/Media [3, 5]: 0.842 | Media [3, 5]: 0.14 mm² | Suppression rate ([3]; 1.0 µg/rat/hr s.c.): 13.1% | Intima ([3]; 3.2 µg/rat/hr s.c. by miniosmotic pump, P < 0.01 vs control): 0.093 mm² | Intima/Media ([3]; 3.2 µg/rat/hr s.c. by miniosmotic pump, P < 0.05 vs control): 0.630 | Media ([3]; 3.2 µg/rat/hr s.c. by miniosmotic pump): 0.158 mm² | Suppression rate ([3]; 3.2 µg/rat/hr s.c.): 31.4% | No. of wandering cells ([4]; 10^-8 M): 107±15##(T) cells/0.48 mm^2 | Suppression rate ([4]; 10^-8 M): 39.2% | No. of wandering cells ([4]; 10^-9 M): 117±19##(T) cells/0.48 mm^2 | Suppression rate ([4]; 10^-9 M): 33.5%

CCCCC[C@H](O)/C=C/[C@H]1[C@H](O)CC(=O)[C@@H]1CCCCCCC(=O)O [Prostaglandin E1, reference compound]
No. of wandering cells ([1]; 10^-7 M): 82.6±17.8 | No. of wandering cells ([1]; 10^-8 M): 82.4±6.9 | Suppression rate ([1]; 10^-9 M): No significance | No. of wandering cells ([1]; 10^-9 M): 91.0±9.8
